Results published in patent EP4737445A1, “NOVEL SATURATED HETEROCYCLE-SUBSTITUTED HETEROARYL-CARBONOHYDRAZONOYL DICYANIDE COMPOUND AND USE THEREOF” (Korea Institute of Science and Technology, priority 2023, dated 2025).

Key:
Format in all cases: in vivo
[1] = tested on: TauP301L-BiFC Tg mice; test: Y-maze test in tau transgenic mice; details: oral 10 mg/kg, 5 times per week, 19 weeks, vehicle = 60.7%
Description: Compounds 6, 16, and 20 were orally administered to 8.2-month-old tau transgenic animal model (TauP301L-BiFC tg mouse) 5 times per week at a concentration of 10 mg/kg for a total of 19 weeks (n=10/group). WT mice of similar age to the vehicle-treated group of TauP301L-BiFC mice were used as a control group. Three types of behavioral experiments (Novel Objective Recognition test, Y-maze test, Balance beam test) were performed to confirm the improvement effects on cognitive function and motor function by drug administration, and these experiments and their results were as follows. • (1) Novel Objective Recognition test: To evaluate the object recognition memory ability of mice, two identical objects (Old-Old) were explored for 10 minutes in a 40 cm × 40 cm box. The next day, one object was replaced with a new object (Old-New) and exploration was performed again for 10 minutes, and then the time showing exploratory behavior toward the existing object and the new object was measured. Mice with normal object recognition ability (Recognition index) spent more time exploring the newly changed object, whereas mice with low object recognition ability could not distinguish the new object. The object recognition ability (Recognition index) values were as follows: (RI, Vehicle= 0.48, n.s., #20= 0.59, p<0.05, #6= 0.66, p<0.0001, #16= 0.58, p<0.05). In TauP301L-BiFC mice, the object recognition function improvement effect by drugs #20, #6, and #16 compared to the vehicle group was confirmed. • (2) Y-maze test: A Y-maze test was performed to evaluate the spatial working memory ability of mice. Whether the mice entered the three arms of the Y-maze by spontaneous alternation behavior for a certain period of time was measured through video recording. An increase in the spontaneous alternation ratio was considered as improved working memory ability. […] The time taken to cross a rod with a height of 50 cm and length of 80 cm and the number of times the feet went outside the rod during crossing were measured. […]

[2] = target: T1, tau (Homo sapiens, UniProt P10636, P618L); test: Tau-BiFC fluorescence imaging of brain tissue (tau oligomer/aggregate formation); details: TauP301L-BiFC mice; oral 10 mg/kg, 19 weeks; vehicle = 100%
T1 construct: BiFC fluorescent-protein fragments (two complementary halves); from tissue; host or cells: brain of TauP301L-BiFC transgenic mice
Description: (§1) After oral administration of Compounds 6, 16, and 20 and completion of behavioral experiments, 13.2-month-old TauP301L-BiFC mice were sacrificed to proceed with brain tissue extraction and [2] brain lysate separation and purification. • [1] First, brain tissue extraction, BiFC fluorescence imaging of brain tissue, and tau phosphorylation antibody immunofluorescence were performed through the following process. TauP301L-BiFC mice were perfused with 0.9% saline and fixed with PBS (pH 7.4) solution containing 4% paraformaldehyde. The brain was extracted and fixed in PBS containing 4% paraformaldehyde at 4°C for 48 to 72 hours. For cryoprotection, the brain was transferred to PBS containing 30% sucrose solution and stored at 4°C until it sank. For frozen sectioning, the brain was immersed in O.C.T (Tissue-TEK) and frozen, and then continuously cut using a brain tissue sectioner. Tissue sections with a thickness of 30 µm were stored in PBS containing 0.05% sodium azide at 4°C.
Brain tissue sections (n=10 per group) were placed on slides, stained with Sudan Black B solution (70% ethanol containing 0.05% Sudan Black B) for 10 minutes to reduce autofluorescence, washed 3 times with PBS containing 0.1% Triton X-100, and then washed with distilled water. For nuclear staining, brain tissue sections were stained with Hoechst (0.5 µg/mL) for 30 minutes. BiFC fluorescence (λex=460-490 nm and λem=500-550 nm) images were acquired using Axio Scan.Z1 (ZEISS). For quantitative analysis, the average BiFC-fluorescence intensity was measured in the somatosensory cortex (layer V) and hippocampus CA1, and the habenular region was used as a control region to reduce background fluorescence differences between brain samples. ImageJ software (NIH) was used to mark regions of interest and calculate fluorescence intensity values, and the data were expressed as the average fluorescence intensity and standard deviation of brain tissue images from 10 mice per group.
As a result of Tau-BiFC fluorescence imaging of four regions of total brain tissue (hippocampus (CA1), somatosensory cortex, cerebellum, brainstem), the degree of Tau-BiFC fluorescence appearing as tau aggregation early oligomer formation and aggregate formation was as follows: • (1) Hippocampus (CA1), vehicle = 100%, #20= 79%, p<0.05, #6= 80%, p<0.05, #16= 72%, p<0.001. • (2) Sensory cortex (SCTX), vehicle = 100%, #20= 72%, p<0.05, #6= 73%, p<0.05, #16= 66%, p<0.01. • (3) Cerebellum (CB), vehicle = 100%, #20= 64%, p<0.05, #6= 68%, ns, #16= 76%, n.s. • (4) Brain stem, vehicle = 100%, #20= 60%, p<0.05, #6= 62%, p<0.05, #16= 60%, p<0.05.

[3] = target: T1, tau; test: AT8 (pS202/T205) phospho-tau immunofluorescence of brain tissue; details: TauP301L-BiFC mice; oral 10 mg/kg, 19 weeks; vehicle = 100%
Description: as §1
To measure not only tau oligomer formation but also the degree of tau phosphorylation observed in the tau pathology process, immunofluorescence staining using a tau phosphorylation antibody was performed. For brain tissue immunofluorescence image analysis, brain tissue slices (n=10 per group) were stained with AT8 (pS202/T205) antibody (1:200), and the primary antibody was detected using Alexa Fluor 633-labeled anti-mouse secondary antibody (1:500). Fluorescence images (λex=620-640 nm and λem=650-700 nm) were acquired using Axio Scan.Z1 (ZEISS).
The AT8 fluorescence imaging results of a total of two brain tissue regions (hippocampus (CA1), somatosensory cortex) were as follows: • (1) Hippocampus (CA1), vehicle = 100%, #20= 72%, p<0.01, #6= 81%, p<0.05, #16= 76%, p<0.01. • (2) Sensory cortex (SCTX), vehicle = 100%, #20= 54%, p<0.0001, #6= 63%, p<0.001, #16= 57%, p<0.0001.

T1 sequence (P10636 1-441 isoform P10636-8 P301L): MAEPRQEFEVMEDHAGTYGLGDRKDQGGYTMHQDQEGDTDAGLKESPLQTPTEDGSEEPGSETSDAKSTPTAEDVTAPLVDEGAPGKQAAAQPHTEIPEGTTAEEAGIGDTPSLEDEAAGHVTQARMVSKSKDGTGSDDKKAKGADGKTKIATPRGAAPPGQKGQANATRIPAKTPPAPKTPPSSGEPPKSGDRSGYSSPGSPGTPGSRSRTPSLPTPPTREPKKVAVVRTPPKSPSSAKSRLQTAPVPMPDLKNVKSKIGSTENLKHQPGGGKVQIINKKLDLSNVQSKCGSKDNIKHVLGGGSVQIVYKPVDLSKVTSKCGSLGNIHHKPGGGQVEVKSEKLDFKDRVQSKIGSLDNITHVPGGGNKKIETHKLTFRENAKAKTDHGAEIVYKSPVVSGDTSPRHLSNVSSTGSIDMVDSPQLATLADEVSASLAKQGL

Row | SMILES | spontaneous alternation ratio (Alteration ratio (%)) [1] | Tau-BiFC fluorescence, Brain stem [2] | Tau-BiFC fluorescence, Cerebellum (CB) [2] | Tau-BiFC fluorescence, Hippocampus (CA1) [2] | Tau-BiFC fluorescence, Sensory cortex (SCTX) [2] | AT8 fluorescence, Hippocampus (CA1) [3] | AT8 fluorescence, Sensory cortex (SCTX) [3]
1 | Cn1c(N2CCOCC2)nc2cc(NN=C(C#N)C#N)ccc21 [Compound 6, (1-methyl-2-morpholino-1H-benzo[d]imidazol-5-yl)carbonohydrazonoyl dicyanide] | 71.1% | 62% | 68% | 80% | 73% | 81% | 63%
2 | CC1COCCN1c1nc2ccc(NN=C(C#N)C#N)cc2o1 (stereo not drawn) [Compound 16, (2-(3-methylmorpholino)benzo[d]oxazol-6-yl)carbonohydrazonoyl dicyanide] | 76.4% | 60% | 76% | 72% | 66% | 76% | 57%
3 | N#CC(C#N)=NNc1ccc2nc(N3C4CCC3COC4)oc2c1 [Compound 20, (2-(3-oxa-8-azabicyclo[3.2.1]octan-8-yl)benzo[d]oxazol-6-yl)carbonohydrazonoyl dicyanide] | 70.8% | 60% | 64% | 79% | 72% | 72% | 54%
